Measured values: patent publication US20240309012A1, “ISOQUINOLINE COMPOUND, MANUFACTURING METHOD THEREFOR, AND APPLICATION THEREOF” (priority 2020, published 2024)
Like-named read-outs stand apart in the source and are kept apart here.

Key:
[1] = Cytotoxicity test on Vero E6 cells by CCK8 kit; assay type: cell-based; details: African green monkey
Description: (§1) In this example, the median toxic concentration (CC50) of each example on Vero E6 cells was analysed and determined by CCK8 kit.

[2] = tested on: 2019 novel coronavirus (SARS-CoV-2); test: Inhibition of 2019 novel coronavirus (SARS-CoV-2) replication in Vero E6 cells, virus copy number by qRT-PCR; assay type: cell-based
[3] = tested on: Vero E6 cells; test: Cytotoxicity test on Vero E6 cells by CCK8 kit; assay type: cell-based
Description: as §1

[4] = tested on: SARS-CoV-2; details: existing literature; cited from earlier work
[5] = Severe acute respiratory syndrome coronavirus 2, Vero C1008, Vero E6 cells, MOI 0.01, 24 h p.i., qRT-PCR of supernatant
[6] = Severe acute respiratory syndrome coronavirus 2, Vero C1008, 24 h

Molecule | CC50 [1] [µM] | EC50 [2, 5] [µM] | other results
COc1cc2c3cc1Oc1c(OC)c(OC)cc4c1[C@@H](Cc1ccc(C#N)c(c1)Oc1ccc(cc1)C[C@@H]3N(C)CC2)N(C)CC4 [Compound 1] | 25.6 | 0.7 | 
COc1cc2c3cc1Oc1c(OC)c(OC)cc4c1[C@@H](Cc1ccc(C=O)c(c1)Oc1ccc(cc1)C[C@@H]3N(C)CC2)N(C)CC4 [Compound 2] | 102 | 1.19 | 
COc1cc2c3cc1Oc1c(OC)c(OC)cc4c1[C@@H](Cc1ccc(CO)c(c1)Oc1ccc(cc1)C[C@@H]3N(C)CC2)N(C)CC4 [Compound 3] | 70.5 | 1.12 | 
CCCCNC(=O)Oc1ccc2cc1Oc1ccc(cc1)C[C@H]1c3cc(c(OC)cc3CCN1C)Oc1c(OC)c(OC)cc3c1[C@@H](C2)N(C)CC3 [Compound 4] | 31.5 |  | EC50 [2, 6]: 0.94 µM
COc1cc2c3cc1Oc1c(OC)c(OC)cc4c1[C@@H](Cc1ccc(OC(=O)CCCC[C@H]5CCSS5)c(c1)Oc1ccc(cc1)C[C@@H]3N(C)CC2)N(C)CC4 [Compound 5] | 172 | 1.5 | 
COC(=O)c1ccc2cc1Oc1ccc(cc1)C[C@H]1c3cc(c(OC)cc3CCN1C)Oc1c(OC)c(OC)cc3c1[C@@H](C2)N(C)CC3 [Compound 8] | 31.4 | 0.36 | 
COc1cc2c3cc1Oc1c(OC)c(OC)cc4c1[C@@H](Cc1ccc(C(N)=O)c(c1)Oc1ccc(cc1)C[C@@H]3N(C)CC2)N(C)CC4 [Compound 9] | 63.2 | 0.55 | 
COc1cc2c3cc1Oc1c(OC)c(OC)cc4c1[C@@H](Cc1cc(c5oc(=O)[nH]c5c1)Oc1ccc(cc1)C[C@@H]3N(C)CC2)N(C)CC4 [Compound 18] | 14.7 | 0.9 | 
COc1cc2c3cc1Oc1c(OC)c(OC)cc4c1[C@@H](Cc1ccc(C(C)=O)c(c1)Oc1ccc(cc1)C[C@@H]3N(C)CC2)N(C)CC4 [Compound 25] | 29.4 | < 2 | 
COc1cc2c3cc1Oc1c(OC)c(OC)cc4c1[C@@H](Cc1ccc(C(=O)NC5CCCC5)c(c1)Oc1ccc(cc1)C[C@@H]3N(C)CC2)N(C)CC4 [Compound 28] | 22.5 | 2.4 | 
COc1cc2c3cc1Oc1c(OC)c(OC)cc4c1[C@@H](Cc1cc(cc([N+](=O)[O-])c1)Oc1ccc(cc1)C[C@@H]3N(C)CC2)N(C)CC4 [Compound 33] | 24.3 | 0.63 | 
COc1cc2c3cc1Oc1c(OC)c(OC)cc4c1[C@@H](Cc1cccc(c1)Oc1ccc(cc1)C[C@@H]3N(C)CC2)N(C)CC4 [Compound 39] | 17.1 | 0.93 | 
C=C(C)c1ccc2cc1Oc1ccc(cc1)C[C@H]1c3cc(c(OC)cc3CCN1C)Oc1c(OC)c(OC)cc3c1[C@@H](C2)N(C)CC3 [Compound 40] | 11.7 | 0.95 | 
COc1cc2c3cc1Oc1c(OC)c(OC)cc4c1[C@@H](Cc1ccc(C)c(c1)Oc1ccc(cc1)C[C@@H]3N(C)CC2)N(C)CC4 [Compound 41] | 10.2 | 2.45 | 
C=CC(=O)Nc1ccc2cc1Oc1ccc(cc1)C[C@H]1c3cc(c(OC)cc3CCN1C)Oc1c(OC)c(OC)cc3c1[C@@H](C2)N(C)CC3 [Compound 42] | 31.1 | < 2 | 
CCCCCNC(=O)c1ccc2cc1Oc1ccc(cc1)C[C@H]1c3cc(c(OC)cc3CCN1C)Oc1c(OC)c(OC)cc3c1[C@@H](C2)N(C)CC3 [Compound 43] | 10.4 | 2.09 | 

Molecule | CC50 [1] [µM] | EC50 [2, 5] [µM] | other results
COc1cc2c3cc1Oc1c(OC)c(OC)cc4c1[C@@H](Cc1ccc(C5CC5)c(c1)Oc1ccc(cc1)C[C@@H]3N(C)CC2)N(C)CC4 [Compound 44] | 10.8 | 2.25 | 
COc1cc2c3cc1Oc1c(OC)c(OC)cc4c1[C@@H](Cc1ccc(C(C)O)c(c1)Oc1ccc(cc1)C[C@@H]3N(C)CC2)N(C)CC4 (stereo partly drawn) [Compound 46] | 29.7 | 1.02 | 
COc1cc2c3cc1Oc1c(OC)c(OC)cc4c1[C@@H](Cc1ccc(C(=O)N5CCCCC5)c(c1)Oc1ccc(cc1)C[C@@H]3N(C)CC2)N(C)CC4 [Compound 47] | 24.6 | < 2 | 
COc1cc2c3cc1Oc1c(OC)c(OC)cc4c1[C@@H](Cc1ccc(C(=O)NC5CC5)c(c1)Oc1ccc(cc1)C[C@@H]3N(C)CC2)N(C)CC4 [Compound 49] | 62.3 | < 2 | 
COc1cc2c3cc1Oc1c(OC)c(OC)cc4c1[C@@H](Cc1ccc(C(=O)Nc5ccccc5)c(c1)Oc1ccc(cc1)C[C@@H]3N(C)CC2)N(C)CC4 [Compound 51] | 10.2 | < 2 | 
CCCCNC(=O)Oc1c(OC)cc2c3c1Oc1cc4c(cc1OC)CCN(C)[C@H]4Cc1ccc(cc1)Oc1cc(ccc1OC)C[C@H]3N(C)CC2 [Compound 53] | 22.2 |  | EC50 [2, 6]: < 2 µM
COc1cc2c3cc1Oc1c(OC)c(OC)cc4c1[C@@H](Cc1ccc(C(=O)Nc5ccc(C(F)(F)F)cc5)c(c1)Oc1ccc(cc1)C[C@@H]3N(C)CC2)N(C)CC4 [Compound 54] | 10.5 | < 2 | 
COc1cc2c3cc1Oc1c(OC)c(OC)cc4c1[C@@H](Cc1ccc(C(=O)NC(C)C)c(c1)Oc1ccc(cc1)C[C@@H]3N(C)CC2)N(C)CC4 [Compound 55] | 32 | < 2 | 
COc1cc2c3cc1Oc1c(OC)c(OC)cc4c1[C@@H](Cc1ccc(C(=O)NC5CCC5)c(c1)Oc1ccc(cc1)C[C@@H]3N(C)CC2)N(C)CC4 [Compound 57] | 33.9 | < 2 | 
COc1cc2c3cc1Oc1c(OC)c(OC)cc4c1[C@@H](Cc1ccc(C(=O)Nc5cccnc5)c(c1)Oc1ccc(cc1)C[C@@H]3N(C)CC2)N(C)CC4 [Compound 58] | 26.4 | < 2 | 
COc1ccc(NC(=O)c2ccc3cc2Oc2ccc(cc2)C[C@H]2c4cc(c(OC)cc4CCN2C)Oc2c(OC)c(OC)cc4c2[C@@H](C3)N(C)CC4)cc1 [Compound 59] | 10.6 | < 2 | 
COc1cc2c3cc1Oc1c(OC)c(OC)cc4c1[C@@H](Cc1ccc(C(=O)C5CC5)c(c1)Oc1ccc(cc1)C[C@@H]3N(C)CC2)N(C)CC4 [Compound 61] | 13.7 | < 2 | 
COc1cc2c3cc1Oc1c(OC)c(OC)cc4c1[C@@H](Cc1ccc(C(=O)NCCOCCO)c(c1)Oc1ccc(cc1)C[C@@H]3N(C)CC2)N(C)CC4 [Compound 62] | 123 | < 2 | 
COc1cc2c3cc1Oc1c(OC)c(OC)cc4c1[C@@H](Cc1ccc(C(=O)OCCOCCO)c(c1)Oc1ccc(cc1)C[C@@H]3N(C)CC2)N(C)CC4 [Compound 65] | 58.4 | < 2 | 
Berbamine hydrochloride [reference compound] |  |  | CC50 [3]: 29.9 µM; Anti-novel coronavirus effect (in words) [4]: not strong; EC50 [2]: 14.5 µM
